From patent US9833497B2, “Human originated EGF domain proteins and use of the same” (CHENGDU SOURCEBIO LIMITED-LIABILITY COMPANY, priority 2013, dated 2017)

Columns and labels:
Type in all cases: cell-based
Serratia marcescens = experiment: MIC against Gram-negative bacteria: Serratia marcescens
Summary of the method: (§1)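 First, colonies from LB agar were grown in LB at 37° C, 185 rpm, to McFarland turbidity 0.5, then centrifuged and resuspended in fresh LB. Next, wells received 5×10^5 CFU/mL bacteria plus two-fold serially diluted EGF domain protein (triplicate). Finally, plates were shaken at 37° C and the no-growth concentration taken as MIC.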

Aeromonas hydrophila = experiment: MIC against Gram-negative bacteria: Aeromonas hydrophila
Summary of the method: as §1

Citrobacter diversus = experiment: MIC against Gram-negative bacteria: Citrobacter diversus
Summary of the method: as §1

Proteus vulgaris = experiment: MIC against Gram-negative bacteria: Proteus vulgaris
Summary of the method: as §1

E. coli DH5α = experiment: Antibacterial activity: MIC and growth curve against E. coli DH5α in 96-well plate; conditions: minimal inhibitory concentration against E. coli DH5α; 96-well plate, 5×10^5 CFU/mL, 37° C., judged after 8 h
Summary of the method: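 MIC taken as lowest protein level with no bacterial growth, tracked by A600 every 30 min during 37 °C, 175 rpm culture. Two-fold protein series 50-12.5 μg/mL final, triplicate wells, against 5×10^5 CFU/mL of LB-washed mid-log cells.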

Pseudomonas aeruginosa = experiment: MIC against Gram-negative bacteria: Pseudomonas aeruginosa
Summary of the method: as §1

E. coli BL21 = experiment: MIC against Gram-negative bacteria: E. coli BL21; conditions: for MIC (μg/mL) E. coli BL21 / MIC: E. coli BL21
Summary of the method: as §1

Moraxella catarrhalis = experiment: MIC against Gram-negative bacteria: Moraxella catarrhalis
Summary of the method: as §1

Enterobacter cloacae = experiment: MIC against Gram-negative bacteria: Enterobacter cloacae
Summary of the method: as §1

Proteus mirabilis = experiment: MIC against Gram-negative bacteria: Proteus mirabilis
Summary of the method: as §1

Klebsiella pneumonia = experiment: MIC against Gram-negative bacteria: Klebsiella pneumonia
Summary of the method: as §1

[1] = S. marcescens, 10 h cultivation at 37° C.
[2] = A. hydrophila, 10 h cultivation at 37° C.
[3] = C. diversus, 10 h cultivation at 37° C.
[4] = P. vulgaris, 10 h cultivation at 37° C.
[5] = P. aeruginosa, 10 h cultivation at 37° C.
[6] = M. catarrhalis, 10 h cultivation at 37° C.
[7] = E. cloacae, 10 h cultivation at 37° C.
[8] = P. mirabilis, 10 h cultivation at 37° C.
[9] = K. pneumonia, 10 h cultivation at 37° C.
[10] = 96-well plate, 5×10^5 CFU/mL, 37° C., 10 h
[11] = Serratia marcescens, 96-well plate, 5×10^5 CFU/mL, 37° C., 10 h
[12] = Aeromonas hydrophila, 96-well plate, 5×10^5 CFU/mL, 37° C., 10 h
[13] = Citrobacter diversus, 96-well plate, 5×10^5 CFU/mL, 37° C., 10 h
[14] = Proteus vulgaris, 96-well plate, 5×10^5 CFU/mL, 37° C., 10 h
[15] = Pseudomonas aeruginosa, 96-well plate, 5×10^5 CFU/mL, 37° C., 10 h
[16] = Moraxella catarrhalis, 96-well plate, 5×10^5 CFU/mL, 37° C., 10 h
[17] = Enterobacter cloacae, 96-well plate, 5×10^5 CFU/mL, 37° C., 10 h
[18] = Proteus mirabilis, 96-well plate, 5×10^5 CFU/mL, 37° C., 10 h
[19] = Klebsiella pneumonia, 96-well plate, 5×10^5 CFU/mL, 37° C., 10 h

PRT225 (DIDECSYSSYLCQYRCINEPGRFSCHCPQGYQLLATRLCQ; listed as Homo sapiens)
50 µg/mL: MIC (μg/mL) E. coli BL21 (E. coli BL21; 10 h cultivation at 37° C., 5×10^5 CFU/mL) | MIC (μg/mL) M. catarrhalis (Moraxella catarrhalis; M. catarrhalis, 10 h cultivation at 37° C., 5×10^5 CFU/mL) | MIC (μg/mL) K. pneumonia (Klebsiella pneumonia; K. pneumonia, 10 h cultivation at 37° C., 5×10^5 CFU/mL)
25 µg/mL: MIC (μg/mL) S. marcescens (Serratia marcescens; S. marcescens, 10 h cultivation at 37° C., 5×10^5 CFU/mL) | MIC (μg/mL) C. diversus (Citrobacter diversus; C. diversus, 10 h cultivation at 37° C., 5×10^5 CFU/mL) | MIC (μg/mL) E. cloacae (Enterobacter cloacae; E. cloacae, 10 h cultivation at 37° C., 5×10^5 CFU/mL) | MIC (μg/mL) P. mirabilis (Proteus mirabilis; P. mirabilis, 10 h cultivation at 37° C., 5×10^5 CFU/mL)
12.5 µg/mL: MIC (μg/mL) A. hydrophila (Aeromonas hydrophila; A. hydrophila, 10 h cultivation at 37° C., 5×10^5 CFU/mL) | MIC (μg/mL) P. vulgaris (Proteus vulgaris; P. vulgaris, 10 h cultivation at 37° C., 5×10^5 CFU/mL) | MIC (E. coli DH5α) | MIC (μg/mL) P. aeruginosa (Pseudomonas aeruginosa; P. aeruginosa, 10 h cultivation at 37° C., 5×10^5 CFU/mL)

PRT917 (DVNECGQKPGLCRHGGTCHNEVGSYRCVCRATHTGPNCE; listed as Homo sapiens)
12.5 µg/mL: MIC (Citrobacter diversus; [3]) | MIC (Pseudomonas aeruginosa; [5])
50 µg/mL: MIC (E. coli BL21; 10 h cultivation at 37° C.) | MIC (Moraxella catarrhalis; [6]) | MIC (Enterobacter cloacae; [7])
25 µg/mL: MIC (Serratia marcescens; [1]) | MIC (Aeromonas hydrophila; [2]) | MIC (Proteus vulgaris; [4]) | MIC (E. coli DH5α) | MIC (Proteus mirabilis; [8]) | MIC (Klebsiella pneumonia; [9])

PRT709 (SCQLCDGYCYNGGTCQLDPETNVPVCLCSTNWSGTQCE; listed as Homo sapiens)
50 µg/mL: MIC S. marcescens (Serratia marcescens; [10]) | MIC A. hydrophila (Aeromonas hydrophila; [10]) | MIC (E. coli DH5α) | MIC P. aeruginosa (Pseudomonas aeruginosa; [10]) | MIC M. catarrhalis (Moraxella catarrhalis; [10])
25 µg/mL: MIC P. mirabilis (Proteus mirabilis; [10]) | MIC K. pneumonia (Klebsiella pneumonia; [10])
12.5 µg/mL: MIC C. diversus (Citrobacter diversus; [10]) | MIC P. vulgaris (Proteus vulgaris; [10]) | MIC E. coli BL21 (E. coli BL21; [10]) | MIC E. cloacae (Enterobacter cloacae; [10])

PRT458 (ECSRLCRNGYCTPTGKCCCSPGWEGDFC; listed as Homo sapiens)
50 µg/mL: MIC (E. coli DH5α)
12.5 µg/mL: MIC against S. marcescens (Serratia marcescens; [10]) | MIC against C. diversus (Citrobacter diversus; [10]) | MIC against P. aeruginosa (Pseudomonas aeruginosa; [10]) | MIC against E. coli BL21 (E. coli BL21; [10]) | MIC against E. cloacae (Enterobacter cloacae; [10]) | MIC against P. mirabilis (Proteus mirabilis; [10]) | MIC against K. pneumonia (Klebsiella pneumonia; [10])
25 µg/mL: MIC against A. hydrophila (Aeromonas hydrophila; [10]) | MIC against P. vulgaris (Proteus vulgaris; [10]) | MIC against M. catarrhalis (Moraxella catarrhalis; [10])

PRT100 (DVNECTSGQNPCHSSTHCLNNVGSYQCRCRPGWQPIPGSPNGPNNTVCE; listed as Homo sapiens)
12.5 µg/mL: MIC (μg/mL) S. marcescens (Serratia marcescens; [11]) | MIC (μg/mL) A. hydrophila (Aeromonas hydrophila; [12]) | MIC (μg/mL) C. diversus (Citrobacter diversus; [13]) | MIC (E. coli DH5α) | MIC (μg/mL) P. aeruginosa (Pseudomonas aeruginosa; [15]) | MIC (μg/mL) E. coli BL21 (E. coli BL21; [10]) | MIC (μg/mL) M. catarrhalis (Moraxella catarrhalis; [16]) | MIC (μg/mL) E. cloacae (Enterobacter cloacae; [17]) | MIC (μg/mL) P. mirabilis (Proteus mirabilis; [18]) | MIC (μg/mL) K. pneumonia (Klebsiella pneumonia; [19])
25 µg/mL: MIC (μg/mL) P. vulgaris (Proteus vulgaris; [14])

PRT95 (DINECETGQHNCVPNSVCINTRGSFQCGPCQPGFVGDQASGCQ; listed as Homo sapiens)
12.5 µg/mL: MIC (μg/mL) A. hydrophila (Aeromonas hydrophila; [12]) | MIC (μg/mL) E. coli BL21 (E. coli BL21; [10]) | MIC (μg/mL) M. catarrhalis (Moraxella catarrhalis; [16]) | MIC (μg/mL) K. pneumonia (Klebsiella pneumonia; [19])
25 µg/mL: MIC (μg/mL) S. marcescens (Serratia marcescens; [11]) | MIC (E. coli DH5α) | MIC (μg/mL) P. mirabilis (Proteus mirabilis; [18])
50 µg/mL: MIC (μg/mL) C. diversus (Citrobacter diversus; [13]) | MIC (μg/mL) P. vulgaris (Proteus vulgaris; [14]) | MIC (μg/mL) P. aeruginosa (Pseudomonas aeruginosa; [15]) | MIC (μg/mL) E. cloacae (Enterobacter cloacae; [17])

PRT966 (PSHPCAHEPCSHGICYDAPGGFRCVCEPGWSGPRCS; listed as Homo sapiens)
12.5 µg/mL: MIC (Serratia marcescens; [1]) | MIC (E. coli BL21; 10 h cultivation at 37° C.) | MIC (Moraxella catarrhalis; [6]) | MIC (Enterobacter cloacae; [7])
25 µg/mL: MIC (Citrobacter diversus; [3]) | MIC (Proteus vulgaris; [4]) | MIC (Klebsiella pneumonia; [9])
50 µg/mL: MIC (Aeromonas hydrophila; [2]) | MIC (E. coli DH5α) | MIC (Pseudomonas aeruginosa; [5]) | MIC (Proteus mirabilis; [8])
